According to ChEMBL document CHEMBL1148552, “Pulvinones as bacterial cell wall biosynthesis inhibitors” (Bioorg Med Chem Lett, 2006):
Values after ≈ are worked out from the molar mass of the structure shown.

How the values were obtained:
Enterococcus faecalis [1] = assay: Antibacterial activity against vancomycin resistant Enterococcus faecalis; type: functional; settings: GC 2242
[2] = target: UDP-N-acetylglucosamine 1-carboxyvinyltransferase (Escherichia coli K-12, UniProt P0A749); assay: Inhibitory activity against MurA in Escherichia coli
Staphylococcus aureus [3] = assay: Antibacterial activity against Staphylococcus aureus; type: functional; settings: GC 4543
Staphylococcus aureus [4] = assay: Antibacterial activity against methicillin resistant Staphylococcus aureus; type: functional; settings: GC 1131
Streptococcus pneumoniae = assay: Antibacterial activity against penicillin resistant Streptococcus pneumoniae; type: functional; settings: GC 1894
[5] = target: T1, UDP-N-acetylmuramoylalanine--D-glutamate ligase (Escherichia coli K-12, UniProt P14900); assay: Inhibitory activity against MurD in Escherichia coli
T1 sequence (P14900 whole entry): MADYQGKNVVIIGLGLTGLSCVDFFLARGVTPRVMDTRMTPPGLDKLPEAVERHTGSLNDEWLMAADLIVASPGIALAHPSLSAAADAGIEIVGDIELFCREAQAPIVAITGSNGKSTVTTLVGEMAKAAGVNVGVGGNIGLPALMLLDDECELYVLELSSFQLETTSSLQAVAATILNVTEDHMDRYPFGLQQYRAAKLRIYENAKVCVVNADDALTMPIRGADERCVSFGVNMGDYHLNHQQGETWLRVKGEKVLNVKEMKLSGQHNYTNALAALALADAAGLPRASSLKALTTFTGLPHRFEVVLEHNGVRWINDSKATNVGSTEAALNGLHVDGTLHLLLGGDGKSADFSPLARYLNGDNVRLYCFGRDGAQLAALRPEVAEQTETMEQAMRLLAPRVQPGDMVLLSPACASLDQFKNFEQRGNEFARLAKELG

Enterococcus faecalis [6] = assay: Antibacterial activity against Enterococcus faecalis; type: functional; settings: GC 4555
[7] = target: T2, UDP-N-acetylenolpyruvoylglucosamine reductase (Escherichia coli K-12, UniProt P08373); assay: Inhibitory activity against MurB in Escherichia coli
T2 sequence (P08373 whole entry): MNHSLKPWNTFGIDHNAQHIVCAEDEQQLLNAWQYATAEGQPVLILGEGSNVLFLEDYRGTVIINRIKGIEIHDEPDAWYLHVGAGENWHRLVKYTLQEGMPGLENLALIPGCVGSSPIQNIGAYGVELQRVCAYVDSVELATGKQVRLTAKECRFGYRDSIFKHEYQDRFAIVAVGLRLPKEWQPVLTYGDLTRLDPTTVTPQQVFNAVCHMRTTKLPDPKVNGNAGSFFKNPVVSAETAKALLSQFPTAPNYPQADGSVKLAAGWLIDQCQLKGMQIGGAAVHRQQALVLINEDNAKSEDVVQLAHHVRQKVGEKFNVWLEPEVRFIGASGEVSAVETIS

[8] = target: T3, UDP-N-acetylmuramoylalanine--D-glutamate ligase (Staphylococcus aureus, UniProt P0A091); assay: Inhibitory activity against MurD in Staphylococcus aureus
T3 sequence (P0A091 whole entry): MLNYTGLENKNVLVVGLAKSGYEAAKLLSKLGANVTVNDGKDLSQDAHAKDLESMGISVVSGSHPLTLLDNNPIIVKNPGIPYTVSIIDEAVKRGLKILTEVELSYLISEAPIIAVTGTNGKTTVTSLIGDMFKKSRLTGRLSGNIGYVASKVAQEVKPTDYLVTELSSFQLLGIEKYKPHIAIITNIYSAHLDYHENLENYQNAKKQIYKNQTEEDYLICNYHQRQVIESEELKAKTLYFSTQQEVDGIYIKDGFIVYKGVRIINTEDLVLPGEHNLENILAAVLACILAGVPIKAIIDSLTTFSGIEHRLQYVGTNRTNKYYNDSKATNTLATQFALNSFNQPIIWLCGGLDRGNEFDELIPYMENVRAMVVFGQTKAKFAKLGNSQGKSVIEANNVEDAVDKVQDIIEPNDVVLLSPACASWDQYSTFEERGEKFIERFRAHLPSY

[9] = target: T4, UDP-N-acetylmuramate--L-alanine ligase (Staphylococcus aureus, UniProt O31211); assay: Inhibitory activity against MurC in Staphylococcus aureus
T4 sequence (O31211 whole entry): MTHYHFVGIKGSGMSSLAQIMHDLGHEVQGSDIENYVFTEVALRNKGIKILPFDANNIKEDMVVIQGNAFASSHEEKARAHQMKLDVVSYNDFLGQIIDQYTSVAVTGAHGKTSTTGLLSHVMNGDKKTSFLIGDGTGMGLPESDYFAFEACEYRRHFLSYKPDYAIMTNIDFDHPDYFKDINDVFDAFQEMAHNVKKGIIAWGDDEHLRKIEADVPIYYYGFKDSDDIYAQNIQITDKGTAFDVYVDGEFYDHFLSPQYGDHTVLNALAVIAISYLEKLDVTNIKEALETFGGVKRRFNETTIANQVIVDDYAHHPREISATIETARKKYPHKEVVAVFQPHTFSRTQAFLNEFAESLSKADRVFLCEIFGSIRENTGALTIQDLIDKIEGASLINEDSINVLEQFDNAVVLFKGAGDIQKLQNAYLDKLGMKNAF

[10] = target: UDP-N-acetylmuramate--L-alanine ligase (Escherichia coli K-12, UniProt P17952); assay: Inhibitory activity against MurC in Escherichia coli
Chain of UDP-N-acetylmuramate--L-alanine ligase (Escherichia coli K-12, UniProt P17952) (P17952 whole entry): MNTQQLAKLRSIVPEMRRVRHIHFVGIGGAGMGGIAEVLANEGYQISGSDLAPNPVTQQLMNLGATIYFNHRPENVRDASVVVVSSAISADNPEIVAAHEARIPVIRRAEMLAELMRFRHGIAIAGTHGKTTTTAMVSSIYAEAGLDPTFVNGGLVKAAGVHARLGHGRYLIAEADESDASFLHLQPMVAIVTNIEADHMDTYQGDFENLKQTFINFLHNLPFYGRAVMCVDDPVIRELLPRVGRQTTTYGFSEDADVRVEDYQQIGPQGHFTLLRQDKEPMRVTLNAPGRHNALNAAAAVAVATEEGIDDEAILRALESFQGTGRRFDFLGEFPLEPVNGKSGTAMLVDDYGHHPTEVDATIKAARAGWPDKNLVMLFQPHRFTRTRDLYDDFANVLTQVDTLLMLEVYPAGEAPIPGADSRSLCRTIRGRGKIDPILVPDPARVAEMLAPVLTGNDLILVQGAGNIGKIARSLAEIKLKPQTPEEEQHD

Chain of UDP-N-acetylglucosamine 1-carboxyvinyltransferase (P0A749 whole entry): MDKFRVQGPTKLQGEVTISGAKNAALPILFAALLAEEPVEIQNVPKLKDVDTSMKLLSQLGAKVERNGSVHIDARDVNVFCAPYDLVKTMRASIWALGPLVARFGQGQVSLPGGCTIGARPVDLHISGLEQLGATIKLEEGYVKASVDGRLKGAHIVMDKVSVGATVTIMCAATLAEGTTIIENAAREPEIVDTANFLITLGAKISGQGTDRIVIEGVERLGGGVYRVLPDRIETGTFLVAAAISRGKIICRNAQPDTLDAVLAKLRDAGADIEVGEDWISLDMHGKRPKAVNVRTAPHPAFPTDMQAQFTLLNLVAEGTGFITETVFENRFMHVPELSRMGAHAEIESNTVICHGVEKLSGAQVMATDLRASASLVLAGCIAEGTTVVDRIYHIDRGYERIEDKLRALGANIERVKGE

Structure (SMILES) | MIC (Enterococcus faecalis [1]) [µg/mL] | IC50 [2] [µM] | MIC (Staphylococcus aureus [3]) [µg/mL] | MIC (Staphylococcus aureus [4]) [µg/mL] | MIC (Streptococcus pneumoniae) [µg/mL] | IC50 [5] [µM] | MIC (Enterococcus faecalis [6]) [µg/mL] | IC50 [7] [µM] | IC50 [8] [µM] | IC50 [9] [µM] | IC50 [10] [µM]
O=C1O/C(=C\c2cccc3ccccc23)C(O)=C1c1cccc(C(F)(F)F)c1 | 8 (≈ 20.9 µM) | > 65.4 | 8 (≈ 20.9 µM) | 8 (≈ 20.9 µM) | 0.5 (≈ 1.31 µM) | > 65.4 | 16 (≈ 41.8 µM) |  |  |  | 
O=C1O/C(=C\C2CCCCC2)C(O)=C1c1cccc(C(F)(F)F)c1 | 32 (≈ 94.6 µM) | > 73.9 | > 128 | 32 (≈ 94.6 µM) | ≤ 0.12 | > 73.9 | 64 (≈ 189 µM) | > 73.9 |  |  | 
O=C1O/C(=C\c2cccc(-c3cc(Cl)cc(Cl)c3)c2)C(O)=C1c1cc(Cl)cc(Cl)c1 | 0.5 (≈ 1.05 µM) | 4.18 | 0.25 (≈ 0.523 µM) | 0.25 (≈ 0.523 µM) | 0.25 (≈ 0.523 µM) |  | 1 (≈ 2.09 µM) |  | 12.5 |  | 
COc1cc(/C=C2\OC(O)=C(c3cc(Cl)cc(Cl)c3)C2=O)ccc1-c1ccccc1C(F)(F)F | 1 (≈ 1.97 µM) | 7.89 | 0.5 (≈ 0.986 µM) | 0.5 (≈ 0.986 µM) | 0.5 (≈ 0.986 µM) |  | 2 (≈ 3.94 µM) | 3.94 | 33.5 | 39.4 | 
O=C1O/C(=C\c2ccc(Cl)cc2)C(O)=C1c1ccc(-c2ccccc2)cc1 | 4 (≈ 10.7 µM) | > 66.7 | 16 (≈ 42.7 µM) | 16 (≈ 42.7 µM) | 1 (≈ 2.67 µM) | > 66.7 | 8 (≈ 21.3 µM) |  |  |  | 
COc1ccc(C2=C(O)O/C(=C\c3cccc(C(F)(F)F)c3)C2=O)cc1 | 64 (≈ 177 µM) | > 69 | 128 (≈ 353 µM) | 1 (≈ 2.76 µM) | 2 (≈ 5.52 µM) | 69 | 128 (≈ 353 µM) | > 69 |  |  | 38.6
O=C1O/C(=C\c2cccc(-c3cccc(Cl)c3)c2)C(O)=C1c1cccc(Cl)c1 | 4 (≈ 9.77 µM) |  | 1 (≈ 2.44 µM) | > 128 | 1 (≈ 2.44 µM) |  | 8 (≈ 19.5 µM) |  |  |  | 
O=C1O/C(=C\c2ccc(-c3ccccc3)cc2)C(O)=C1c1ccc2ccccc2c1 | 4 (≈ 10.2 µM) | > 64 | 4 (≈ 10.2 µM) | 16 (≈ 41 µM) | 2 (≈ 5.12 µM) | > 64 | 8 (≈ 20.5 µM) |  |  |  | 
O=C1O/C(=C\c2ccccc2)C(O)=C1c1ccccc1 [PULVINONE] |  |  |  |  |  |  |  |  |  |  | ≤ 30.3
O=C1O/C(=C\c2ccc(-c3cc(Cl)cc(Cl)c3)cc2)C(O)=C1c1cc(Cl)cc(Cl)c1 | 0.5 (≈ 1.05 µM) |  | 0.5 (≈ 1.05 µM) | 4 (≈ 8.37 µM) | ≤ 0.12 |  | 1 (≈ 2.09 µM) |  |  |  | 
O=C1O/C(=C\c2cccc(C(F)(F)F)c2)C(O)=C1c1cccc2ccccc12 | 32 (≈ 83.7 µM) | > 65.4 | 64 (≈ 167 µM) | 32 (≈ 83.7 µM) | 8 (≈ 20.9 µM) | > 65.4 | > 128 | > 65.4 |  |  | 
O=C1O/C(=C(/C(=O)Nc2cccc(C(F)(F)F)c2)c2ccccc2)C(O)=C1c1ccccc1 |  |  |  |  |  |  |  |  |  |  | 17.7
O=C1O/C(=C\c2ccccc2-c2ccc(Cl)c(Cl)c2)C(O)=C1c1ccc(Cl)c(Cl)c1 | 0.5 (≈ 1.05 µM) | 6.27 | 0.25 (≈ 0.523 µM) | 0.5 (≈ 1.05 µM) | ≤ 0.12 |  | 1 (≈ 2.09 µM) |  | 10.5 | 37.6 | 
O=C1O/C(=C\c2ccc(-c3ccccc3)cc2)C(O)=C1c1cccc2ccccc12 | 8 (≈ 20.5 µM) |  | 4 (≈ 10.2 µM) | 8 (≈ 20.5 µM) | 4 (≈ 10.2 µM) | > 64 | 32 (≈ 82 µM) | > 64 |  |  | 
O=C1O/C(=C\c2cc(C(F)(F)F)ccc2F)C(O)=C1c1ccc(-c2ccccc2)c(F)c1 | 2 (≈ 4.5 µM) |  | 2 (≈ 4.5 µM) | 2 (≈ 4.5 µM) | 0.5 (≈ 1.13 µM) |  | 2 (≈ 4.5 µM) |  |  |  | 
O=C1O/C(=C\c2cc(C(F)(F)F)ccc2Cl)C(O)=C1c1ccc(N2CCOCC2)c(F)c1 | 128 (≈ 272 µM) | > 53.2 | 128 (≈ 272 µM) | 64 (≈ 136 µM) | 16 (≈ 34.1 µM) |  | 128 (≈ 272 µM) | 21.3 | > 53.2 | > 53.2 | 
O=C1O/C(=C\c2cccc(C(F)(F)F)c2)C(O)=C1c1ccc(Cl)cc1 | 8 (≈ 21.8 µM) | 38.2 | 8 (≈ 21.8 µM) | 16 (≈ 43.6 µM) | 1 (≈ 2.73 µM) | > 68.2 | 16 (≈ 43.6 µM) | 24.5 |  |  | 16.4
O=C1O/C(=C\c2cc(C(F)(F)F)ccc2Cl)C(O)=C1c1ccc(-c2ccccc2)c(F)c1 | 1 (≈ 2.17 µM) |  | 1 (≈ 2.17 µM) | 1 (≈ 2.17 µM) | 0.25 (≈ 0.543 µM) |  | 4 (≈ 8.68 µM) |  |  |  | 
O=C1O/C(=C\C2CCCCC2)C(O)=C1c1ccc2ccccc2c1 | 8 (≈ 25 µM) |  | 16 (≈ 49.9 µM) | > 128 | ≤ 0.12 |  | 32 (≈ 99.9 µM) |  |  |  | 
O=C1O/C(=C\c2ccc3ccccc3c2)C(O)=C1c1cccc(C(F)(F)F)c1 | 4 (≈ 10.5 µM) | > 65.4 | 8 (≈ 20.9 µM) | 8 (≈ 20.9 µM) | 0.5 (≈ 1.31 µM) | > 65.4 | 16 (≈ 41.8 µM) |  |  |  | 
COc1ccc(C2=C(O)O/C(=C\c3cccc4ccccc34)C2=O)cc1 | 32 (≈ 92.9 µM) | > 72.6 | 64 (≈ 186 µM) | 32 (≈ 92.9 µM) | 8 (≈ 23.2 µM) | > 72.6 | > 128 | > 72.6 |  |  | 46.5
Cc1ccccc1-c1ccc(/C=C2\OC(O)=C(c3cc(Cl)cc(Cl)c3)C2=O)cc1C | 0.5 (≈ 1.14 µM) | 4.57 | 0.5 (≈ 1.14 µM) | 0.5 (≈ 1.14 µM) | ≤ 0.12 |  | 2 (≈ 4.57 µM) | 2.29 | 20.6 | 52.6 | 
O=C1O/C(=C\c2cccc(C(F)(F)F)c2)C(O)=C1c1ccc2ccccc2c1 | 8 (≈ 20.9 µM) |  | 8 (≈ 20.9 µM) | 8 (≈ 20.9 µM) | 8 (≈ 20.9 µM) | > 65.4 | 32 (≈ 83.7 µM) |  |  |  | 
O=C1O/C(=C\c2cccc3ccccc23)C(O)=C1c1ccc(Cl)cc1 | 8 (≈ 22.9 µM) | > 71.7 | 8 (≈ 22.9 µM) | 8 (≈ 22.9 µM) | 0.5 (≈ 1.43 µM) | > 71.7 | 16 (≈ 45.9 µM) |  |  |  | 
O=C1O/C(=C\c2cccc(C(F)(F)F)c2)C(O)=C1c1ccc(-c2ccccc2)c(F)c1 | 0.25 (≈ 0.586 µM) | 23.5 | 2 (≈ 4.69 µM) | 2 (≈ 4.69 µM) | 0.25 (≈ 0.586 µM) | > 58.6 | 1 (≈ 2.35 µM) |  |  |  | 18.8
O=C1O/C(=C\c2cccc(C(F)(F)F)c2Cl)C(O)=C1c1ccc(-c2ccccc2)c(F)c1 | 0.5 (≈ 1.09 µM) |  | 1 (≈ 2.17 µM) | 1 (≈ 2.17 µM) | 0.25 (≈ 0.543 µM) |  | 2 (≈ 4.34 µM) |  |  |  | 
O=C1O/C(=C\c2cccc(C(F)(F)F)c2)C(O)=C1c1ccc(-c2ccccc2)cc1 | 4 (≈ 9.79 µM) |  | 4 (≈ 9.79 µM) | 4 (≈ 9.79 µM) | 0.5 (≈ 1.22 µM) | > 61.2 | 8 (≈ 19.6 µM) | 12.2 |  |  | 
COc1ccccc1-c1ccc(/C=C2\OC(O)=C(c3cc(Cl)cc(Cl)c3)C2=O)cc1OC | 8 (≈ 17 µM) | 36.2 | 2 (≈ 4.26 µM) | 2 (≈ 4.26 µM) | 0.5 (≈ 1.07 µM) | > 53.3 | 8 (≈ 17 µM) | 12.8 |  |  | 12.8
